Results reported in patent US20180064739A1, “NUTRITIONAL COMPOSITION WITH HUMAN MILK OLIGOSACCHARIDES AND USES THEREOF” (Mead Johnson Nutrition Company, priority 2016, published 2018).

Columns and labels:
[1] = tested on: ganglioside-bound sialic acid in corpus callosum and cerebellum; experiment: Ganglioside-bound sialic acid in brain regions of suckling pigs fed sialyllactose diets (periodic acid-resorcinol reaction); type: in vivo; details: diet supplemented with 4 g/L, fed 21 days
Source text: This study sought to determine whether administration of certain isomers of sialyllactose could increase or enrich sialic acid in the brain tissues of neonatal pigs. Indeed, accumulation of sialic acid in the brain during neonatal development is associated with increased cognitive functioning. Further, sialic acid (SA) is a key component of human milk oligosaccharides and neural tissues. SA accumulates in the brain rapidly during neonatal development and is thought to play an important role in brain development. […] Piglets readily consumed the formula, grew at normal rates and remained clinically healthy throughout the experiment.
After 21 days, the pigs were euthanized and the left hemisphere of the brain was dissected into cerebrum, cerebellum, corpus callosum, and hippocampus regions. […] The lipid- and protein-bound sialic acid contents from each sample were determined using a modified periodic acid-resorcinol reaction. Free sialic acid was calculated by difference. Briefly, the sialic from the protein and ganglioside fractions was first oxidized using the periodic acid reagent, which released the oxidized sialic-aldehyde derivative quantitatively. The released sialic derivative was measured colorimetrically using the resorcinol-HCl reagent.

[2] = tested on: heat shock protein 72 (Hsp72); experiment: Liver Hsp72 after inescapable tail shock stress in diet-fed rats; type: in vivo, male F344 rats; details: diet for 4 weeks, after stressor exposure
Source text: This study sought to determine whether the administration of PDX, GOS, and lactoferrin could modulate stress-evoked responses and the concentration of inflammatory cytokines and chemokines in blood or tissue. Briefly, male F344 rats were pair-housed in a barrier facility and fed experimental or control diet for 4 weeks. The diet formulations were as follows: (1) control, (2) diet supplemented with lactoferrin (LAC), (3) diet supplemented with GOS and PDX, and (4) diet supplemented with GOS, PDX, and Lactoferrin.
The rats were pair housed in standard Nalgene Plexiglas cages (45 cm×25.2 cm×14.7 cm) and had ad libitum access to food and water for the duration of the experimental procedures. Food consumption was monitored three times per week by weighing the chow pellets within each food hopper. Following 4 weeks on the diets, rats were exposed to inescapable (IS) or remained within their home cage undisturbed (home cage controls; HCC). IS consisted of 100, 1.5 mA inescapable tail shocks administered at variable intervals over a period of approximately 2 hours. Rats exposed to IS were restrained in Broome-style Plexiglas tubes (23.4 cm in length and 7.0 cm in diameter) with their tails exposed for electrode attachment.
Furthermore, in the same study heat shock protein 72 (Hsp72) was measured in the liver. […]

[3] = tested on: microbial taxa of the proximal and distal colon; experiment: Gut microbiome of suckling pigs, 16S rDNA Illumina sequencing of colon digesta; type: in vivo; details: 21 days
Source text: This study sought to determine whether administration of certain isomers of sialyllactose could modulate the microbiome of developing neonatal pigs, i.e. suckling pigs. Indeed, selectively promoting beneficial gut microbiota in preterm and term infants, toddlers, and children may provide long-term health benefits, including neuronal benefits. Briefly, day-old pigs were randomized among 6 diets; (1) control diet, (2) diet supplemented with 2 g/L of 3′-sialyllactose, (3) diet supplemented with 4 g/L of 3′-sialyllactose, (4) diet supplemented with 2 g/L of 6′-sialyllactose, (5) diet supplement with 4 g/L of 6′-sialyllactose, and (6) 2 g/L PDX and 2 g/L GOS. The pigs were fed three times per day for 21 days.
Pigs were euthanized and intestinal digesta were analyzed from the proximal and distal colon. The microbiome analysis was performed via 16S rDNA Illumina sequencing. Briefly, DNA was extracted from digesta using the UltraClean Tissue and Cells DNA Isolation Kit (MoBio). The DNA was then cleaned using PowerClean DNA Clean-Up Kit (ThermoFisher Scientific, Waltham, Mass.) and quantified with the Qubit Quant-iT dsDNA Broad- Range Kit (MoBio Laboratories, Carlsbad, Calif.). The V4 region of 16S ribosomal RNA was amplified using primers 515F (5#-GTGCCAGCMGCCGCGGTAA-3#) and 806R (5#-[…]-3#). Resulting PCR products were sequenced using Illumina MiSeq paired-end technology. High-quality sequences were searched against Greengenes database and then clustered at 97% sequence identity to form operational taxonomic units (OTUs) and assigned taxonomic classification. Similarity between microbial communities was assessed using the Bray-Curtis distance metric and then visualized using principal coordinates analysis. To test the community differences between microbiota between all groups of samples, we used the Adonis function. Because all genera were considered in the test, the Bonferroni multiple comparison correction was applied.

[4] = supplemented diet, colon digesta

Molecule: CC(=O)N[C@H]1[C@H]([C@H](O)[C@H](O)CO)O[C@@](O[C@H]2[C@@H](O)[C@@H](CO)O[C@@H](O[C@H]3[C@H](O)[C@@H](O)C(O)O[C@@H]3CO)[C@@H]2O)(C(=O)O)C[C@@H]1O (stereo partly shown) [3′-sialyllactose]
- increase of ganglioside-bound sialic acid in the cerebellum compared to control pigs [1]: over 10%

Molecule: lactoferrin
- effect of stress on liver Hsp72 expression [2]: reduction in the effect of stress

Molecule: CC(=O)N[C@H]1[C@H]([C@H](O)[C@H](O)CO)O[C@@](OC[C@H]2O[C@@H](O[C@H]3[C@H](O)[C@@H](O)[C@H](O)O[C@@H]3CO)[C@H](O)[C@@H](O)[C@H]2O)(C(=O)O)C[C@@H]1O [6′-sialyllactose]
- bacterial taxa of Collinsella aerofaciens, Ruminococcus, Faecalibacterium and Prevotella ([3]; diet supplemented with 4 g/L, compared to the control diet): increase
- microbiome difference versus control diet ([3]; diet supplemented with 4 g/L, proximal and distal colon): statistically significant microbiome difference
- bacterial taxa belonging to the phyla Actinobacteria and Bacteroidetes ([3]; diet supplemented with 4 g/L, versus control diet): statistically significant increase
- taxa of the family Enterobacteriaceae and Enterococaceae, fold lower than in the control diet [3, 4]: 2.3 fold
- taxa of the family Lachnospiraceael and order Lactobacillales, fold lower than in the control diet [3, 4]: 4 fold
